# “Also recorded” adds a separate entry of the source.
# How the values were obtained:
# [1] = tested on: Npc1nmf164 mice; assay: Foamy macrophages in lungs of Npc1nmf164 mice (H&E); type: in vivo, mouse; conditions: Npc1nmf164 mice at 100 days of age, weekly i.p.
# Description: H&E stained micrographs showing foamy macrophages (indicated by black arrows) at 100 days of age in the lung of Npc1^+/nmf164 (healthy control) and Npc1^nmf164 (^Npc) mutant mice treated as indicated. Foamy macrophages were abundant in untreated Npc mice. […] Images were taken with 40× objective lens and are representative of 4 mice in each group. Number of mice in each group=4. For quantitation, 10-15 random fields were analyzed per lung section. Untr, Untreated.*p=0.02, TCF vs HPBCD, two-tailed Mann-Whitney test.
# Drug injection and organ harvest—The Triple combination formulation (TCF) is a mixture of vorinostat (50 mg/kg), HPBCD (2000 mg/Kg)), PEG 400 (45%) and DMSO (5%). Vorinostat (50 mg/Kg) was made in 5% DMSO and 45% PEG. HPBCD was a 20% (w/v) solution and given dose of 2000 mg/Kg. Detailed methodology on preparing drug solutions have been descried earlier^10. To enable comparative studies with prior regiments, all mice were given two doses of HPBCD at P7 and P15. From P21 onwards, mice received either HPBCD alone or TCF, as indicated. Vo was also initiated at P21. […] For lung histopathology, Npc1^nmf164 mice were analyzed at 100-109 days of age. Long-term safety was assessed for 8-10 months either in Npc^1+/nmf164 or commercially purchased wild type Balb/c mice. […]
# [2] = tested on: Npc1nmf164 mice; assay: Efficacy in Npc1nmf164 mouse model of Niemann-Pick type C disease; type: in vivo
# Description: Animals—Npc1^nmf164 is a BALB/c strain carry a D1005G (A to G at cDNA bp 3163) mutation in the Npc1 gene 32. […] Homozygous mutants (Npc1^nmf164) along with wild-type littermates (Npc1^+/+), were generated in house by crossing heterozygous mutant (Npc1^+/nmf164) males and females and genotyped as previously described^10. Wild type Balb/c mice were procured from Envigo (Indianapolis, Ind., USA).
# Drug injection and organ harvest—The Triple combination formulation (TCF) is a mixture of vorinostat (50 mg/kg), HPBCD (2000 mg/Kg)), PEG 400 (45%) and DMSO (5%). Vorinostat (50 mg/Kg) was made in 5% DMSO and 45% PEG. HPBCD was a 20% (w/v) solution and given dose of 2000 mg/Kg. […] To enable comparative studies with prior regiments, all mice were given two doses of HPBCD at P7 and P15. From P21 onwards, mice received either HPBCD alone or TCF, as indicated. Vo was also initiated at P21. Injections were administered weekly through the intraperitoneal (i.p) route (and the injection volume used was 10 ml/Kg body weight across all treatment groups). For lung histopathology, Npc1^nmf164 mice were analyzed at 100-109 days of age. Long-term safety was assessed for 8-10 months either in Npc^1+/nmf164 or commercially purchased wild type Balb/c mice.
# [3] = literature, cited from earlier work
# [4] = Quantification of Vo in lungs by mass spectrometry; type: in vivo, mouse; conditions: Npc1+/nmf164 mice
# Description: Npc1^+/nmf164 injected i.p. with Vo or TCF. At indicated times, animals sacrificed, perfused with PBS and Vo concentration in lungs were determined by mass spectrometry. n=5. h, hour. *p=0.02, TCF vs Vo 0.5 h, and **p=0.014 TCF vs Vo, 1 h, two tailed Student's t test.
# Quantification of Vo in lungs—Npc1^+/nmf164 mice (age 6-7 weeks) were given intraperitoneal injections of either Vo (50 mg/Kg in 45% PEG and 5% DMSO) or TCF (Vo 50 mg/Kg+HPBCD, 2000 mg/Kg+PEG, 45%+DMSO, 5%). At 30 min and 1 h post injection, mice were asphyxiated with CO2, blood was drawn by cardiac puncture and organs were perfused with 20 ml ice-cold PBS through the ventricle. Harvested lungs were cut into small pieces (4-6 mm2) and flash frozen in liquid nitrogen. The quantification of vorinostat was done by Metabolite Profiling Facility, Bindley Bioscience Center, Purdue University, Ind., USA. The detailed methods are as described earlier^10. Briefly, the tissue was homogenized using a Precelly bead homogenizer system utilizing ceramic CK 14 beads. 2 ng of deuterated internal standard (d5-Vorinostat, Toronto Research Chemicals, Ontario, Canada) was added to lung homogenate prior to liquid extraction with acetonitrile. Prior to analysis, samples were reconstituted in 100 μL of 50% water/50% acetonitrile. An Agilent 1200 Rapid Resolution liquid chromatography (HPLC) system coupled to an Agilent 6460 series triple quadrupole mass spectrometer (MS/MS) was used to analyze vorinostat. The data were obtained in positive electrospray ionization (ESI) mode and quantitated by monitoring the following transitions: for Vorinostat, 265→232 with a collision energy of 5 V and for d5-Vorinostat, 270→237 with collision energy of 5 V.
# [5] = tested on: inflammatory pain model; conditions: intrathecal; cited from earlier work
# [6] = tested on: SNI; conditions: intrathecal injection; cited from earlier work
# [7] = tested on: animal pain models; conditions: systemically applied; cited from earlier work
structure (smiles),measurement,setting,value
"CC(O)COC[C@H]1O[C@@H]2O[C@H]3[C@H](O)[C@@H](O)[C@@H](O[C@H]4[C@H](O)[C@@H](O)[C@@H](O[C@H]5[C@H](O)[C@@H](O)[C@@H](O[C@H]6[C@H](O)[C@@H](O)[C@@H](O[C@H]7[C@H](O)[C@@H](O)[C@@H](O[C@H]8[C@H](O)[C@@H](O)[C@@H](O[C@H]1[C@H](O)[C@H]2O)O[C@@H]8COCC(C)O)O[C@@H]7COCC(C)O)O[C@@H]6COCC(C)O)O[C@@H]5COCC(C)O)O[C@@H]4COCC(C)O)O[C@@H]3COCC(C)O (stereo partly drawn) [HPBCD, 2-hydroxypropyl-β-cyclodextrin]",accumulation of foamy macrophages in the lungs,[1],abundant macrophage accumulation; also recorded: no effect
same,benefit on Npc1nmf164 mouse survival,[2]; 2×HPBCD compared to 1×HPBCD alone,no additional benefit
same,blood brain barrier crossing,[3],does not cross the blood brain barrier
same,distribution to lung,[3]; systemic delivery,excluded from lung
"O=C(CCCCCCC(=O)Nc1ccccc1)NO [Vo, vorinostat]",reduction of Vo lung concentration from 30 min to 60 min,[4]; i.p.,65-70%
same,concentration at 30 min,"[4]; mouse, lung, ip, 50 mg/Kg, 30 min post i.p. injection",3200 ng/g
same,concentration at 60 min,"[4]; mouse, lung, ip, 50 mg/Kg, 60 min post i.p. injection",1000 ng/g
same,accumulation of foamy macrophages in the lungs,[1],abundant macrophage accumulation; also recorded: no effect
same,histone acetylation in the spinal cord dorsal horn,[5],enhanced histone acetylation
same,hyperalgesia,[5],reduced hyperalgesia
same,benefit on Npc1nmf164 mouse survival,[2]; Vo in PEG,no benefit
O=C(O)[C@H]1O[C@@H](Oc2cc3oc(-c4ccccc4)cc(=O)c3c(O)c2O)[C@H](O)[C@@H](O)[C@@H]1O [baicalin],histone acetylation,[6],reduces histone acetylation
same,pain behavior,[6],reverses pain behavior
COc1cc(/C=C/C(=O)CC(=O)/C=C/c2ccc(O)c(OC)c2)ccc1O [curcumin],analgesia,[7],modest analgesia
O=C(/C=C/c1ccc(CN(CCO)CCc2c[nH]c3ccccc23)cc1)NO [dacinostat],histone acetylation in the spinal cord dorsal horn,[5],enhanced histone acetylation
same,hyperalgesia,[5],reduced hyperalgesia
CC(/C=C/C(=O)NO)=C\[C@@H](C)C(=O)c1ccc(N(C)C)cc1 [trichostatin A],histone acetylation in the spinal cord dorsal horn,[5],enhanced histone acetylation
same,hyperalgesia,[5],reduced hyperalgesia
CCCC(CCC)C(=O)O [valproic acid],analgesia,[7],modest analgesia
